The values that follow are results of earlier work, collected in US20240156749A1, “Pre And Post Natal Compositions Including Carotenoids” (Maravilla, LLC, priority 2022, published 2024).

The subject of this series is oxygen-induced retinopathy. To be noted: mouse model of retinopathy of prematurity; prenatal supplementation.

With `CC1=C[C@H](O)CC(C)(C)[C@H]1/C=C/C(C)=C/C=C/C(C)=C/C=C/C=C(C)/C=C/C=C(C)/C=C/C1=C(C)C[C@@H](O)CC1(C)C` [lutein], the “inhibition of oxygen-induced retinopathy” value is “significantly inhibits oxygen-induced retinopathy”. For the compound `CC1=C(/C=C/C(C)=C/C=C/C(C)=C/C=C/C=C(C)/C=C/C=C(C)/C=C/C2=C(C)C[C@@H](O)CC2(C)C)C(C)(C)C[C@H](O)C1` [zeaxanthin], the “inhibition of oxygen-induced retinopathy” value is “significantly inhibits oxygen-induced retinopathy”.
